Source: US20250002476A1, “AZOLE COMPOUNDS FOR CONTROLLING INVERTEBRATE PESTS” (FMC Corporation, priority 2021, published 2025)

Tests used:
Assay type in all cases: in vivo
[1] = system: Neotropical Brown Stink Bug (Euschistus heros (Fab)); assay: Test H: control of Neotropical Brown Stink Bug on sprayed green bean pieces; settings: sprayed at 250 ppm; 3rd instar nymphs; 5 days
Protocol: (§1) Test compounds were formulated using a solution containing 10% acetone, 90% water and 300 ppm Activator 90@ non-ionic surfactant (Loveland Products, Loveland, Colorado, USA). The formulated compounds were applied in 1 mL of liquid through an atomized nozzle positioned 1.27 cm (0.5 inches) above the top of each test unit. Test compounds were sprayed at the rates indicated, and each test was replicated three times.
For evaluating control of Neotropical Brown Stink Bug (Euschistus heros (Fab)) through contact and/or systemic means, the test unit consisted of a petri dish with two, ˜2 cm pieces of green bean inside.
Test compounds were formulated and sprayed at 250, 50 and 10 ppm. After spraying of the formulated test compound, the test units were allowed to dry for 1 h before they were post-infested with 10 3rd instar nymphs. A fine mesh screen was secured to the petri dish, the test units were held for 5 days in a growth chamber at 28° C. and 65% relative humidity. Each test unit was then visually assessed for insect mortality after five days.

[2] = system: Corn Planthopper (Peregrinus maidis (Ashmead)); assay: Test B: control of Corn Planthopper on sprayed corn plant; settings: 144 h, nymphs, 6 days; for mortality at 10 ppm: sprayed at 10 ppm; for mortality at 50 ppm: sprayed at 50 ppm; for mortality at 250 ppm: sprayed at 250 ppm
Protocol: as §1
For evaluating control of Corn Planthopper (Peregrinus maidis (Ashmead)) through contact and/or systemic means, the test unit consisted of a small open container with a 3-4-day-old corn (maize) plant inside. White sand was added to the top of the soil prior to application of the test compound.
Test compounds were formulated and sprayed at 250, 50 and 10 ppm. After spraying of the formulated test compound, the test units were allowed to dry for 1 h before they were post-infested with ˜15-20 nymphs (18-to-21-day-old). A black, screened cap was placed on the top of each test unit, and the test units were held for 6 days in a growth chamber at 22-24° C. and 50-70% relative humidity. Each test unit was then visually assessed for insect mortality.

[3] = system: Green Peach Aphid (Myzus persicae (Sulzer)); assay: Test D: control of Green Peach Aphid on sprayed radish plant; settings: 144 h, pre-infested, 6 days; for mortality at 250 ppm: sprayed at 250 ppm; for mortality at 50 ppm: sprayed at 50 ppm
Protocol: as §1
For evaluating control of Green Peach Aphid (Myzus persicae (Sulzer)) through contact and/or systemic means, the test unit consisted of a small open container with a 12-15-day-old radish plant inside. Prior to compound application, each test unit was pre-infested by placing on a leaf of the test plant 30-40 aphids on a piece of leaf excised from a culture plant (cut-leaf method). The aphids moved onto the test plant as the leaf piece desiccated. After pre-infestation, the soil of the test unit was covered with a layer of sand.
Test compounds were formulated and sprayed at 250 and 50 ppm. After spraying of the formulated test compound, each test unit was allowed to dry for 1 hour and then a black, screened cap was placed on top. The test units were held for 6 days in a growth chamber at 19-21° C. and 50-70% relative humidity. Each test unit was then visually assessed for insect mortality.

[4] = system: cotton melon aphid (Aphis gossypii (Glover)); assay: Test E: control of cotton melon aphid on sprayed okra plant; settings: 144 h, pre-infested, 6 days; for mortality at 50 ppm: sprayed at 50 ppm; for mortality at 2 ppm: sprayed at 2 ppm; for mortality at 250 ppm: sprayed at 250 ppm
Protocol: as §1
For evaluating control of cotton melon aphid (Aphis gossypii (Glover)) through contact and/or systemic means, the test unit consisted of a small open container with a 5-day-old okra plant inside. This was pre-infested with 30-40 insects on a piece of leaf according to the cut-leaf method, and the soil of the test unit was covered with a layer of sand.
Test compounds were formulated and sprayed at 250, 50, 10 and 2 ppm. After spraying, the test units were maintained in a growth chamber for 6 days at 19° C. and 70% relative humidity. Each test unit was then visually assessed for insect mortality.

[5] = system: silverleaf whitefly (Bemisia argentifolii (Bellows and Perring)); assay: Test F: control of silverleaf whitefly on sprayed soybean plant; settings: 288 h, pre-infested (oviposition), 12 days; for mortality at 250 ppm: sprayed at 250 ppm; for mortality at 50 ppm: sprayed at 50 ppm
Protocol: as §1
For evaluating control of silverleaf whitefly (Bemisia argentifolii (Bellows and Perring)) through contact and/or systemic means, each test unit consisted of a small open container with a 5-7 day old soybean plant inside. This was pre-infested by placing test units into cages containing adult whiteflies so that oviposition on the leaves could occur. The adults were removed from the plants with an air-blast nozzle, and the test units were capped. The test units were then stored 2 to 3 days before spraying.
Test compounds were formulated and sprayed at 250 and 50 ppm. After spraying, the test units were maintained in a growth chamber for 12 days at 23° C. and 70% relative humidity. Each test unit was then visually assessed for insect mortality.

[6] = system: Potato Leafhopper (Empoasca fabae (Harris)); assay: Test C: control of Potato Leafhopper on sprayed bean plant; settings: 144 h, adults, 6 days; for mortality at 250 ppm: sprayed at 250 ppm
Protocol: as §1
For evaluating control of Potato Leafhopper (Empoasca fabae (Harris)) through contact and/or systemic means, the test unit consisted of a small open container with a 5-6-day-old bean plant inside. White sand was added to the top of the soil, and one of the primary leaves was excised prior to application of the test compound.
Test compounds were formulated and sprayed at 250 and 50 ppm. After spraying of the formulated test compound, the test units were allowed to dry for 1 hour before they were post-infested with 5 potato leafhoppers (18-to-21-day-old adults). A black, screened cap was placed on the top of the test unit, and the test units were held for 6 days in a growth chamber at 20° C. and 70% relative humidity. Each test unit was then visually assessed for insect mortality.

| SMILES | mortality at 250 ppm [3] | mortality at 50 ppm [4] | mortality at 250 ppm [5] | mortality at 50 ppm [2] | mortality at 250 ppm [2] | other results |
| --- | --- | --- | --- | --- | --- | --- |
| CCC#CCn1cc(-c2ccc(C)cc2)nn1 [Compound 18] | – | – | – | – | – | mortality [1]: at least 50% |
| CCC#CCn1nnc(-c2ccc(F)cc2)n1 [Compound 41, 5-(4-fluorophenyl)-2-(2-pentyn-1-yl)-2H-tetrazole] | ≥ 80% | ≥ 80% | ≥ 50% | – | – | mortality at 10 ppm [2]: ≥ 80% |
| CCC#CCn1nnc(-c2cc(F)cc(F)c2)n1 [Compound 65, 5-(3,5-difluorophenyl)-2-(2-pentyn-1-yl)-2H-tetrazole] | – | – | ≥ 50% | ≥ 80% | – | mortality at 50 ppm [3]: ≥ 80%; mortality at 2 ppm [4]: ≥ 80% |
| CCC#CCn1ncc(-c2ccc(C(F)(F)F)cc2)n1 [Compound 103, 2-(2-Pentyn-1-yl)-4-[4-(trifluoromethyl)phenyl]-2H-1,2,3-triazole] | ≥ 80% | ≥ 80% | ≥ 50% | ≥ 80% | – | mortality at 250 ppm [6]: ≥ 80% |
| CC(C)C#CCn1ncc(-c2ccc(C(F)(F)F)cc2)n1 [Compound 139] | – | – | – | – | ≥ 80% | mortality at 250 ppm [6]: ≥ 80%; mortality at 250 ppm [4]: ≥ 80% |
| CCC#CCn1ncc(-c2cncc(F)c2)n1 [Compound 155] | ≥ 80% | ≥ 80% | – | ≥ 80% | – | mortality at 250 ppm [6]: ≥ 80% |
| CCC#CCn1ncc(-c2ccc(Cl)nc2)n1 [Compound 157] | ≥ 80% | ≥ 80% | ≥ 50% | ≥ 80% | – | – |
| CCC#CCn1cc(-c2ccc(F)nc2)nn1 [Compound 158] | – | – | – | – | – | mortality at 50 ppm ([6]; sprayed at 50 ppm): ≥ 80%; mortality at 250 ppm [4]: ≥ 80% |
| CCC#CCn1ncc(-c2ccc(F)nc2)n1 [Compound 159, 2-Fluoro-5-[2-(2-pentyn-1-yl)-2H-1,2,3-triazol-4-yl]pyridine] | – | ≥ 80% | – | ≥ 80% | – | mortality at 250 ppm [6]: ≥ 80% |
| CCC#CCn1nnc(-c2ccc(Br)c(Cl)c2)n1 [Compound 164, 5-(4-Bromo-3-chlorophenyl)-2-(2-pentyn-1-yl)-2H-tetrazole] | ≥ 80% | ≥ 80% | – | – | ≥ 80% | mortality at 50 ppm [5]: ≥ 50% |
| CCC#CCn1nnc(-c2ccc3occc3c2)n1 [Compound 193, 5-(5-Benzofuranyl)-2-(2-pentyn-1-yl)-2H-tetrazole] | ≥ 80% | ≥ 80% | ≥ 50% | ≥ 80% | – | – |
| CCC#CCn1nnc(-n2cc(Cl)cn2)n1 [Compound 306] | ≥ 80% | ≥ 80% | ≥ 50% | – | ≥ 80% | – |
| CCC#CCn1nnc(-c2ccc(Cl)c(F)c2)n1 [Compound 308, 5-(4-Chloro-3-fluorophenyl)-2-(2-pentyn-1-yl)-2H-tetrazole] | – | – | – | – | ≥ 80% | mortality at 50 ppm [3]: ≥ 80%; mortality at 10 ppm ([4]; sprayed at 10 ppm): ≥ 80%; mortality at 50 ppm [5]: ≥ 50% |
| CCC#CCn1nnc(-c2cc(F)c(F)c(F)c2)n1 [Compound 313, 2-(2-Pentyn-1-yl)-5-(3,4,5-trifluorophenyl)-2H-tetrazole] | – | – | ≥ 50% | – | – | mortality at 10 ppm [2]: ≥ 80%; mortality at 50 ppm [3]: ≥ 80%; mortality at 2 ppm [4]: ≥ 80% |
| CCC#CCn1nnc(-c2ccc(C(F)(F)F)c(Br)c2)n1 [Compound 325, 5-[3-Bromo-4-(trifluoromethyl)phenyl]-2-(2-pentyn-1-yl)-2H-tetrazole] | – | ≥ 80% | – | – | ≥ 80% | mortality at 50 ppm [3]: ≥ 80%; mortality at 50 ppm [5]: ≥ 50% |
